Test system: KB
Assay: Growth inhibition of human KB cells by [3H]thymidine incorporation assay
Assay type: functional, cell-based

| SMILES | IC50 (Homo sapiens, KB) [nM] | IC50 (kb) [nM] |
| --- | --- | --- |
| CC[C@H](C)[C@H](NC(=O)[C@H]1CCCCN1C)C(=O)N(COCCC(C)C)[C@H](C[C@@H](OC(C)=O)c1nc(C(=O)N[C@@H](Cc2ccc(O)cc2)C[C@H](C)C(=O)O)cs1)C(C)C | 12 |  |
| CCCSCN(C(=O)[C@@H](NC(=O)[C@H]1CCCCN1C)[C@@H](C)CC)[C@H](C[C@@H](OC(C)=O)c1nc(C(=O)N[C@@H](Cc2ccc(O)cc2)C[C@H](C)C(=O)O)cs1)C(C)C | 1.4 |  |
| CCSCN(C(=O)[C@@H](NC(=O)[C@H]1CCCCN1C)[C@@H](C)CC)[C@H](C[C@@H](OC(C)=O)c1nc(C(=O)N[C@@H](Cc2ccc(O)cc2)C[C@H](C)C(=O)O)cs1)C(C)C | 2 |  |
| CC[C@H](C)[C@H](NC(=O)[C@H]1CCCCN1C)C(=O)N(COC)[C@H](C[C@@H](OC(C)=O)c1nc(C(=O)N[C@@H](Cc2ccc(O)cc2)C[C@H](C)C(=O)O)cs1)C(C)C | 9 |  |
| CC[C@H](C)[C@H](NC(=O)[C@H]1CCCCN1C)C(=O)N(CSCCO)[C@H](C[C@@H](OC(C)=O)c1nc(C(=O)N[C@@H](Cc2ccc(O)cc2)C[C@H](C)C(=O)O)cs1)C(C)C | 26 |  |
| CC[C@H](C)[C@H](NC(=O)[C@H]1CCCCN1C)C(=O)N(COCCO)[C@H](C[C@@H](OC(C)=O)c1nc(C(=O)N[C@@H](Cc2ccc(O)cc2)C[C@H](C)C(=O)O)cs1)C(C)C | 18 |  |
| CCCCCSCN(C(=O)[C@@H](NC(=O)[C@H]1CCCCN1C)[C@@H](C)CC)[C@H](C[C@@H](OC(C)=O)c1nc(C(=O)N[C@@H](Cc2ccc(O)cc2)C[C@H](C)C(=O)O)cs1)C(C)C | 0.8 |  |
| CC[C@@H](C)[C@H](NC(=O)[C@H]1CCCCN1C)C(=O)N(COC(=O)CC(C)C)[C@H](C[C@@H](OC(C)=O)c1nc(C(=O)N[C@@H](Cc2ccc(O)cc2)C[C@H](C)C(=O)O)cs1)C(C)C [TUBULYSIN A] |  | 1 |
| CCCC(=O)OCN(C(=O)[C@@H](NC(=O)[C@H]1CCCCN1C)[C@@H](C)CC)[C@H](C[C@@H](OC(C)=O)c1nc(C(=O)N[C@@H](Cc2ccc(O)cc2)C[C@H](C)C(=O)O)cs1)C(C)C [TUBULYSIN B] | 2 |  |
| CC[C@H](C)[C@H](NC(=O)[C@H]1CCCCN1C)C(=O)N(CSCCS)[C@H](C[C@@H](OC(C)=O)c1nc(C(=O)N[C@@H](Cc2ccc(O)cc2)C[C@H](C)C(=O)O)cs1)C(C)C | 26 |  |
| CCCOCN(C(=O)[C@@H](NC(=O)[C@H]1CCCCN1C)[C@@H](C)CC)[C@H](C[C@@H](OC(C)=O)c1nc(C(=O)N[C@@H](Cc2ccc(O)cc2)C[C@H](C)C(=O)O)cs1)C(C)C | 1.4 |  |
| CCCCSCN(C(=O)[C@@H](NC(=O)[C@H]1CCCCN1C)[C@@H](C)CC)[C@H](C[C@@H](OC(C)=O)c1nc(C(=O)N[C@@H](Cc2ccc(O)cc2)C[C@H](C)C(=O)O)cs1)C(C)C | 0.7 |  |
| CC[C@H](C)[C@H](NC(=O)[C@H]1CCCCN1C)C(=O)N(CNC(=O)CC(C)C)[C@H](C[C@@H](OC(C)=O)c1nc(C(=O)N[C@@H](Cc2ccc(O)cc2)C[C@H](C)C(=O)O)cs1)C(C)C | 8 |  |
| C=CCCN(C(=O)[C@@H](NC(=O)[C@H]1CCCCN1C)[C@@H](C)CC)[C@H](C[C@@H](OC(C)=O)c1nc(C(=O)N[C@@H](Cc2ccc(O)cc2)C[C@H](C)C(=O)O)cs1)C(C)C | 1.3 |  |
